Measured values taken from ChEMBL document CHEMBL3769371, “1-[(2E)-3-Phenylprop-2-enoyl]-1H-benzimidazoles as anticancer agents: synthesis, crystal structure analysis and binding studies of the most potent anticancer molecule with serum albumin” (Medchemcomm, 2015).
The source made the active and inactive calls. The calls are words filed in the database; no cut-off is given here.

Assays:
[1] = tested on: PC-3; experiment: Antiproliferative activity against human PC3 cells at 10'5 M; assay type: functional
[2] = tested on: TK-10; experiment: Antiproliferative activity against human TK10 cells at 10'5 M; assay type: functional
[3] = tested on: NCI-H460; experiment: Antiproliferative activity against human NCI-H460 cells at 10'5 M; assay type: functional
[4] = tested on: MOLT-4; experiment: Antiproliferative activity against human MOLT4 cells at 10'5 M; assay type: functional
[5] = tested on: SNB-75; experiment: Antiproliferative activity against human SNB75 cells at 10'5 M; assay type: functional
[6] = tested on: DU-145; experiment: Antiproliferative activity against human DU145 cells at 10'5 M; assay type: functional
[7] = tested on: HCT-116; experiment: (§1) Antiproliferative activity against human HCT116 cells at 10'5 M; assay type: functional
[8] = tested on: CCRF-CEM; experiment: Antiproliferative activity against human CCRF-CEM cells at 10'5 M; assay type: functional
[9] = tested on: NCI/ADR-RES; experiment: Antiproliferative activity against human NCI-ADR-RES cells at 10'5 M; assay type: functional
[10] = tested on: Hs-578T; experiment: Antiproliferative activity against human Hs 578T cells at 10'5 M; assay type: functional
[11] = tested on: IGROV-1; experiment: Antiproliferative activity against human IGROV1 cells at 10'5 M; assay type: functional
[12] = tested on: K562; experiment: Antiproliferative activity against human K562 cells at 10'5 M; assay type: functional
[13] = tested on: MCF7; experiment: Antiproliferative activity against human MCF7 cells at 10'5 M; assay type: functional
[14] = tested on: SR; experiment: Antiproliferative activity against human SR cells at 10'5 M; assay type: functional
[15] = tested on: Malme-3M; experiment: Antiproliferative activity against human MALME-3M cells at 10'5 M; assay type: functional
[16] = tested on: SK-OV-3; experiment: Antiproliferative activity against human SKOV3 cells at 10'5 M; assay type: functional
[17] = tested on: OVCAR-4; experiment: Antiproliferative activity against human OVCAR4 cells at 10'5 M; assay type: functional
[18] = tested on: HCC 2998; experiment: Antiproliferative activity against human HCC2998 cells at 10'5 M; assay type: functional
[19] = tested on: RPMI-8226; experiment: (§2) Antiproliferative activity against human RPMI8226 cells at 10'5 M; assay type: functional
[20] = as §1; assay type: functional, HCT-116
[21] = as §2; assay type: functional, RPMI-8226

## Cc1nc2ccccc2n1C(=O)/C=C/c1ccccc1
[1]
  Activity: inactive
[2]
  Activity: inactive
[3]
  Activity: inactive
[4]
  Activity: inactive
[5]
  Activity: inactive
[6]
  Activity: inactive
[7]
  Activity: inactive
[8]
  Activity: inactive
[9]
  Activity: inactive
[10]
  Activity: inactive
[11]
  Activity: inactive
[12]
  Activity: inactive
[13]
  Activity: inactive
[14]
  Activity: inactive
[15]
  Activity: inactive
[16]
  Activity: inactive
[17]
  Activity: inactive
[18]
  Activity: inactive
[19]
  Activity: inactive

## Cc1ccc2ncn(C(=O)/C=C/c3ccccc3)c2c1
[1]
  Activity: inactive
[2]
  Activity: inactive
[3]
  Activity: inactive
[4]
  Activity: inactive
[5]
  Activity: inactive
[6]
  Activity: inactive
[7]
  Activity: inactive
[8]
  Activity: inactive
[9]
  Activity: inactive
[10]
  Activity: inactive
[11]
  Activity: inactive
[12]
  Activity: inactive
[13]
  Activity: inactive
[14]
  Activity: inactive
[15]
  Activity: inactive
[16]
  Activity: inactive
[17]
  Activity: inactive
[18]
  Activity: inactive
[19]
  Activity: inactive

## O=C(/C=C/c1ccccc1)n1c(-c2ccccc2O)nc2ccccc21
[1]
  Activity: inactive
[2]
  Activity: inactive
[3]
  Activity: inactive
[4]
  Activity: inactive
[5]
  Activity: inactive
[6]
  Activity: inactive
[7]
  Activity: inactive
[8]
  Activity: inactive
[9]
  Activity: inactive
[10]
  Activity: inactive
[11]
  Activity: inactive
[12]
  Activity: inactive
[13]
  Activity: inactive
[14]
  Activity: inactive
[15]
  Activity: inactive
[16]
  Activity: inactive
[17]
  Activity: inactive
[18]
  Activity: inactive
[19]
  Activity: inactive

## O=C(/C=C/c1ccccc1)n1c(-c2ccc(O)cc2)nc2ccccc21
[1]
  Activity: inactive
[2]
  Activity: inactive
[3]
  Activity: inactive
[4]
  Activity: inactive
[5]
  Activity: inactive
[6]
  Activity: inactive
[7]
  Activity: inactive
[8]
  Activity: inactive
[9]
  Activity: inactive
[10]
  Activity: inactive
[11]
  Activity: inactive
[12]
  Activity: inactive
[13]
  Activity: inactive
[14]
  Activity: inactive
[15]
  Activity: inactive
[16]
  Activity: inactive
[17]
  Activity: inactive
[18]
  Activity: inactive
[19]
  Activity: inactive

## Cc1ccc2nc[nH]c2c1
[20]
  growth inhibition (GI): 64.84%
[8]
  growth inhibition (GI): 60.81%
[13]
  growth inhibition (GI): 73.43%
[14]
  growth inhibition (GI): 84.7%
[21]
  growth inhibition (GI): 88.17%

## O=C(/C=C/c1ccccc1)n1c(-c2ccccc2)nc2ccccc21
[1]
  Activity: inactive
[2]
  Activity: inactive
[3]
  Activity: inactive
[4]
  Activity: inactive
[5]
  Activity: inactive
[6]
  Activity: inactive
[7]
  Activity: inactive
[8]
  Activity: inactive
[9]
  Activity: inactive
[10]
  Activity: inactive
[11]
  Activity: inactive
[12]
  Activity: inactive
[13]
  Activity: inactive
[14]
  Activity: inactive
[15]
  Activity: inactive
[16]
  Activity: inactive
[17]
  Activity: inactive
[18]
  Activity: inactive
[19]
  Activity: inactive

## Cc1cc2ncn(C(=O)/C=C/c3ccccc3)c2cc1C
[1]
  Activity: inactive
[2]
  Activity: inactive
[3]
  Activity: inactive
[4]
  Activity: inactive
[5]
  Activity: inactive
[6]
  Activity: inactive
[7]
  Activity: inactive
[8]
  Activity: inactive
[9]
  Activity: inactive
[10]
  Activity: inactive
[11]
  Activity: inactive
[12]
  Activity: inactive
[13]
  Activity: inactive
[14]
  Activity: inactive
[15]
  Activity: inactive
[16]
  Activity: inactive
[17]
  Activity: inactive
[18]
  Activity: inactive
[19]
  Activity: inactive

## COc1ccc(-c2nc3ccccc3n2C(=O)/C=C/c2ccccc2)cc1
[1]
  Activity: inactive
[2]
  Activity: inactive
[3]
  Activity: inactive
[4]
  Activity: inactive
[5]
  Activity: inactive
[6]
  Activity: inactive
[7]
  Activity: inactive
[8]
  Activity: inactive
[9]
  Activity: inactive
[10]
  Activity: inactive
[11]
  Activity: inactive
[12]
  Activity: inactive
[13]
  Activity: inactive
[14]
  Activity: inactive
[15]
  Activity: inactive
[16]
  Activity: inactive
[17]
  Activity: inactive
[18]
  Activity: inactive
[19]
  Activity: inactive

## Cc1cc2nc[nH]c2cc1C [DIMEDAZOL]
[8]
  growth inhibition (GI): 64.66%
[13]
  growth inhibition (GI): 69.59%
[14]
  growth inhibition (GI): 64.66%
[21]
  growth inhibition (GI): 63.61%
